Measured values taken from PMC2644050 (The Journal of pharmacology and experimental therapeutics, 2008).

Key:
[1] = biological target: T1, human muscarinic M1 receptor (CHO M1) (Homo sapiens, UniProt P11229); assay: stimulation of phosphoinositide hydrolysis, [3H]inositol pre-labeling; type: cell-based
T1 sequence (P11229 1-460): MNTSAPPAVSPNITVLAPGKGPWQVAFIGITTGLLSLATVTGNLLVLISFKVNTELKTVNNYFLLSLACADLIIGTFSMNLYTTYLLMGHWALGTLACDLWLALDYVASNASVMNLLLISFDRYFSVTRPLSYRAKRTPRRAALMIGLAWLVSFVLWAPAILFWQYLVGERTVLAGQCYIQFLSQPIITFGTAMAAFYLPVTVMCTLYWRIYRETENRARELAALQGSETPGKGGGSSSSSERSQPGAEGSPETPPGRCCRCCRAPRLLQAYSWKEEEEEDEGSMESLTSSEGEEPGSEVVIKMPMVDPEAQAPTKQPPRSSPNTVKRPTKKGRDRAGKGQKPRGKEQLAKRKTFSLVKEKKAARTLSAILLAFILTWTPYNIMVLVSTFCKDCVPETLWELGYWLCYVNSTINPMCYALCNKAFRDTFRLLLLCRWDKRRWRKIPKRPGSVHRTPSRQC

[2] = biological target: T2, human muscarinic M4 receptor (CHO M4) (Homo sapiens, UniProt P08173); assay: inhibition of forskolin-stimulated cAMP accumulation, [3H]adenine pre-labeling; type: cell-based; details: CHO M4 cells, Gi pathway, 10 μM forskolin; agonist
T2 sequence (P08173 1-479): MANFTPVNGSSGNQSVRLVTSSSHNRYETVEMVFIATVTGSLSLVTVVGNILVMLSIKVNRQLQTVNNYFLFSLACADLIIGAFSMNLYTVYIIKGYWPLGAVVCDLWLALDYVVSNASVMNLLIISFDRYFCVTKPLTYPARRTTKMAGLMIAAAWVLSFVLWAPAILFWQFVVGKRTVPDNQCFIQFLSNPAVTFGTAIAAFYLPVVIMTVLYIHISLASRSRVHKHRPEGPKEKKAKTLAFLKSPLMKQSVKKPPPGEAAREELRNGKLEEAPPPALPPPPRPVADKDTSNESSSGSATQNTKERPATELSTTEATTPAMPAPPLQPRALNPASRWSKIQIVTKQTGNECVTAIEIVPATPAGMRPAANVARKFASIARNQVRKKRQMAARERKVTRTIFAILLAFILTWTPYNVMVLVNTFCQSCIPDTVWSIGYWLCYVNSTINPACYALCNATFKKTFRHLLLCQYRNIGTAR

## C[N+](C)(C)CC#CCN1CCCC1=O [oxotremorine-M]
[1]
  EC50 (μM): 0.041 (−7.39 ± .05) μM
[2]
  EC50 (μM): 0.030 (−7.52 ± .07) μM
